Source: patent US20260176260A1, “DUAL RAF AND TUBULIN INHIBITORS AND METHODS OF USE THEREOF” (Deciphera Pharmaceuticals, LLC, priority 2023, published 2026)

Tests used:
[1] = biological target: T1, C-Raf kinase (Homo sapiens, UniProt P04049, Y340D/Y341D); test: Biochemical assay for C-Raf (coupled pyruvate kinase/lactate dehydrogenase); conditions: Table 5; read-out: CRAF
T1 construct: C-Raf residues 306-end; Y340D, Y341D with N-; purchased Sigma

[2] = tested on: MiaPaca-2 cells; test: MiaPaca-2 cell proliferation assay (resazurin); format: cell-based; conditions: Table 5; read-out: MiaPaca-2
[3] = tested on: tubulin polymerization in HCT-116 cells; test: Cellular tubulin polymerization assay (pellet/supernatant a-tubulin, HCT-116 cells); format: cell-based; conditions: Table 5, HCT-116 cells; read-out: Tubulin Cellular
Method: HCT-116 cells (catalog #CCL-247) are obtained from the American Type Culture Collect (ATCC, Manassas, VA). Briefly, cells are grown in McCoy's 5A supplemented with 10% characterized fetal bovine serum (Invitrogen, Carlsbad, CA) and 1% Penicillin/Streptomycin/L-Glutamine at 37° C., 5% CO2, and 95% humidity. Cells are expanded until reaching 70-95% confluency at which point they are sub-cultured or harvested for assay use. 450000 cells are added per well in 1500 μL complete growth medium in a tissue culture treated, 12-well plate. Plates are incubated for 18 to 24 h at 37° C., 5% CO2, and 95% humidity. At the end of the incubation, 2000 μL of base culture media is added to each well, followed by a serial dilution of compound. Plates are incubated for an additional 1 h at 37° C., 5% CO2, and 95% humidity. Lysates are generated by the addition of 100 μL Lysis and Microtubule Stabilization Buffer 1 (LMS01, Cytoskeleton Inc, Denver, CO) supplemented with GTP (BST06, Cytoskeleton Inc), ATP (BSA04, Cytoskeleton Inc), and Protease Inhibitor Cocktail Stock (PIC02, Cytoskeleton Inc). Cells are scraped off wells using a rubber cell scraper and collected in a clean 96-well plate. Lysates are centrifuged at 1000×g, 37° C. for 10 min and supernatant fraction is placed into an additional 96-well plate. The remaining pellet fraction is reconstituted in 100 μL LMS01 buffer and sonicated for 10 min. Pellet and Supernatant fractions are probed for a-tubulin via western blot analysis on the Jess System or equivalent (Bio-techne, Minneapolis, MN). Data is analyzed using Prism software (Graphpad, San Diego, CA) to calculate IC50 values.

[4] = tested on: HPAF-II cells; test: HPAF-II cell proliferation assay (resazurin); format: cell-based; conditions: Table 5; read-out: HPAF-II
Method in brief: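 Serial compound dilutions in triplicate with 750 cells/well in complete MEM with 10% FBS, 115 to 120 h at 37° C, 5% CO2. Resazurin then added for 18 to 24 h; fluorescence at ex 540/em 600 nm used to derive IC50.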

[5] = biological target: T2, B-Raf kinase (Homo sapiens, UniProt P15056); test: Biochemical assay for B-Raf (coupled pyruvate kinase/lactate dehydrogenase); conditions: Table 5; read-out: BRAF
T2 construct: purchased Sigma

[6] = biological target: T3, Porcine Brain Tubulin (Sus scrofa, UniProt P02550+P02554); test: Biochemical tubulin polymerization assay; conditions: Table 5; read-out: Tubulin Biochem
T3 construct: Porcine Brain Tubulin (T240); purchased Cytoskeleton, Inc T240; BK011P; host or cells: porcine brain

[7] = tested on: HCT-116 cells; test: HCT-116 cell proliferation assay (resazurin); format: cell-based; conditions: Table 5; read-out: HCT-116
Method in brief: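 HCT-116 cells, 375 per well in McCoy's 5A with 10% FBS, exposed to serially diluted compound in triplicate for 67-72 h at 37 °C. Resazurin added for 4-5 h more; fluorescence (ex 540/em 600 nm) fitted to IC50.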

T3 sequence (P02550 whole entry): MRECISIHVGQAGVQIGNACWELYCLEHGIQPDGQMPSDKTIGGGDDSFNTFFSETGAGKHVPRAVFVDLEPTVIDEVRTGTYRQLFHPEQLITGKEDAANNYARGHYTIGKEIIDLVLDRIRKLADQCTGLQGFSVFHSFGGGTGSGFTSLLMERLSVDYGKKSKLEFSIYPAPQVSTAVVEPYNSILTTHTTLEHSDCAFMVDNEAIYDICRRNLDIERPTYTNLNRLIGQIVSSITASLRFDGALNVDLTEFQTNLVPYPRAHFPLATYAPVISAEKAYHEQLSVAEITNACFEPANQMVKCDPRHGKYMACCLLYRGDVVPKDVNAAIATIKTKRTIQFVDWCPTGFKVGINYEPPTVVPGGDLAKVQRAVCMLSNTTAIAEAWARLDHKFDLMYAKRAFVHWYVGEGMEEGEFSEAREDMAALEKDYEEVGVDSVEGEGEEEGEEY
T3 sequence (P02554 whole entry): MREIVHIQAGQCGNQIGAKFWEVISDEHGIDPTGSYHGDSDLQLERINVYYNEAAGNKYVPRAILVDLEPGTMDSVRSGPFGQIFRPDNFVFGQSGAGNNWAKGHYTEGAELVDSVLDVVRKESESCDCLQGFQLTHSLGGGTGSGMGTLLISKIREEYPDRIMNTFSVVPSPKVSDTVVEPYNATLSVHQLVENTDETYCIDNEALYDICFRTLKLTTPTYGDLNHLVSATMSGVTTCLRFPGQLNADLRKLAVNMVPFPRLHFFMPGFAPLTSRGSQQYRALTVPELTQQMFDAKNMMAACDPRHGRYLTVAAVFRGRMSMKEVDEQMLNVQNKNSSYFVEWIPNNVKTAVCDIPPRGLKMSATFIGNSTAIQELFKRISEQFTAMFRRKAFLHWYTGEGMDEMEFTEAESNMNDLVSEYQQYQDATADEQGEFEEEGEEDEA
T2 sequence (P15056 416-766): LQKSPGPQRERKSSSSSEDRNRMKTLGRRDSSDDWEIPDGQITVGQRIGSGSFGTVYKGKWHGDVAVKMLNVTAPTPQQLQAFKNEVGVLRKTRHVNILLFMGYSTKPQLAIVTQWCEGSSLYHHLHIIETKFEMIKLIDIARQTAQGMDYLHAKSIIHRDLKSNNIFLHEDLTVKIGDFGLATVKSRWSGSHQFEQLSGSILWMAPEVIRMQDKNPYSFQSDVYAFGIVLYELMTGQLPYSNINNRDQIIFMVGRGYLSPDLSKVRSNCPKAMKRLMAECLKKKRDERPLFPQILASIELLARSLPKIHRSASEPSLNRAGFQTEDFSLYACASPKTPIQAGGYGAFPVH

Substance: Belvarafenib [reference compound]
- IC50 [1]: < 100 nM
- IC50 [2]: 1000 to 10000 nM
- IC50 [3]: 1000 to 10000 nM
- IC50 [4]: 1000 to 10000 nM
- IC50 [5]: < 100 nM
- IC50 [6]: > 100000 nM
- IC50 [7]: 500 to 1000 nM
